Data: ChEMBL document CHEMBL1151801, “Synthesis of new indeno[1,2-e]pyrimido[4,5-b][1,4]diazepine-5,11-diones as potential antitumor agents” (2008)
Active and inactive are the calls of the source. The rule behind the calls is not given here.

System: NCI60
Experiment: Antitumor activity against human NCI60 cells at 1 uM
Type: functional, cell-based

| SMILES | Activity |
| --- | --- |
| COc1ccc(C2Nc3nc(OC)n(C)c(=O)c3NC3=C2C(=O)c2ccccc23)cc1 (stereo not given) | inactive |
| COc1ccc(C2Nc3nc(SC)n(C)c(=O)c3NC3=C2C(=O)c2ccccc23)cc1 (stereo not given) | inactive |
| COc1nc2c(c(=O)n1C)NC1=C(C(=O)c3ccccc31)C(c1ccccc1)N2 (stereo not given) | inactive |
| COc1ccc(C2Nc3nc(SC)[nH]c(=O)c3NC3=C2C(=O)c2ccccc23)cc1 (stereo not given) | inactive |
| CSc1nc2c(c(=O)n1C)NC1=C(C(=O)c3ccccc31)C(c1ccccc1)N2 (stereo not given) | inactive |
